# System: 521955-158-R2-J5-PDC complex spheroids, viability
# Test: Anticancer human tumor 521955-158-R2-J5-PDC patient-derived pancreatic carcinoma cell line growth inhibition [RAS]
# Settings: for IC50: curve of first compound; for viability, T/C: stronger effect = lower value
# Method in brief: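 Agents were tested in combination matrices in half-log decrements from a top concentration at or near clinical Cmax (10 microM if undetermined). Targets were multi-cell spheroids of tumour lines plus HUVEC and MSC stromal cells.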
# [1] = second compound 0.000949 µM, first compound 0.00316 µM
# [2] = second compound 0.000949 µM, first compound 0.01 µM
# [3] = second compound 0.000949 µM, first compound 0.0316 µM
# [4] = second compound 0.000949 µM, first compound 0.1 µM
# [5] = second compound 0.000949 µM, first compound 0.316 µM
# [6] = second compound 0.000949 µM, first compound 1 µM
# [7] = second compound 0.003 µM, first compound 0.00316 µM
# [8] = second compound 0.003 µM, first compound 0.01 µM
# [9] = second compound 0.003 µM, first compound 0.0316 µM
# [10] = second compound 0.003 µM, first compound 0.1 µM
# [11] = second compound 0.003 µM, first compound 0.316 µM
# [12] = second compound 0.003 µM, first compound 1 µM
# [13] = second compound 0.00949 µM, first compound 0.00316 µM
# [14] = second compound 0.00949 µM, first compound 0.01 µM
# [15] = second compound 0.00949 µM, first compound 0.0316 µM
# [16] = second compound 0.00949 µM, first compound 0.1 µM
# [17] = second compound 0.00949 µM, first compound 0.316 µM
# [18] = second compound 0.00949 µM, first compound 1 µM
# [19] = second compound 0.03 µM, first compound 0.00316 µM
# [20] = second compound 0.03 µM, first compound 0.01 µM
# [21] = second compound 0.03 µM, first compound 0.0316 µM
# [22] = second compound 0.03 µM, first compound 0.1 µM
# [23] = second compound 0.03 µM, first compound 0.316 µM
# [24] = second compound 0.03 µM, first compound 1 µM
# [25] = second compound 0.0949 µM, first compound 0.00316 µM
# [26] = second compound 0.0949 µM, first compound 0.01 µM
# [27] = second compound 0.0949 µM, first compound 0.0316 µM
# [28] = second compound 0.0949 µM, first compound 0.1 µM
# [29] = second compound 0.0949 µM, first compound 0.316 µM
# [30] = second compound 0.0949 µM, first compound 1 µM
# [31] = second compound 0.3 µM, first compound 0.00316 µM
# [32] = second compound 0.3 µM, first compound 0.01 µM
# [33] = second compound 0.3 µM, first compound 0.0316 µM
# [34] = second compound 0.3 µM, first compound 0.1 µM
# [35] = second compound 0.3 µM, first compound 0.316 µM
# [36] = second compound 0.3 µM, first compound 1 µM
# [37] = second compound 0.000949 µM, first compound 3.16 µM
# [38] = second compound 0.000949 µM, first compound 10 µM
# [39] = second compound 0.003 µM, first compound 3.16 µM
# [40] = second compound 0.003 µM, first compound 10 µM
# [41] = second compound 0.00949 µM, first compound 3.16 µM
# [42] = second compound 0.00949 µM, first compound 10 µM
# [43] = second compound 0.03 µM, first compound 3.16 µM
# [44] = second compound 0.03 µM, first compound 10 µM
# [45] = second compound 0.0949 µM, first compound 3.16 µM
# [46] = second compound 0.0949 µM, first compound 10 µM
# [47] = second compound 0.3 µM, first compound 3.16 µM
# [48] = second compound 0.3 µM, first compound 10 µM
# 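Further: compound exposure lasted seven days before the viability read.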
# 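Wherever viability, T/C is given: spheroids also contain HUVEC endothelial cells and mesenchymal stem cells as stroma.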
smiles,measurement,setting,value
C=CC(=O)Nc1cc(Nc2nccc(-c3cn(C)c4ccccc34)n2)c(OC)cc1N(C)CCN(C)C + CCn1c(-c2cc(N3CCN(C)CC3)cnc2C(C)OC)c2c3cc(ccc31)-c1csc(n1)CC(NC(=O)C1CC1C)C(=O)N1CCCC(N1)C(=O)OCC(C)(C)C2,IC50,second compound 0.000949 µM,< 3.16 nM
same,IC50,second compound 0.003 µM,< 3.16 nM
same,IC50,second compound 0.00949 µM,< 3.16 nM
same,IC50,second compound 0.03 µM,< 3.16 nM
same,IC50,second compound 0.0949 µM,< 3.16 nM
same,IC50,second compound 0.3 µM,< 3.16 nM
same,"viability, T/C",[1],44.6%
same,"viability, T/C",[2],53.5%
same,"viability, T/C",[3],38.4%
same,"viability, T/C",[4],43.4%
same,"viability, T/C",[5],35.7%
same,"viability, T/C",[6],23.1%
same,"viability, T/C",[7],40.9%
same,"viability, T/C",[8],46.9%
same,"viability, T/C",[9],50.2%
same,"viability, T/C",[10],43.5%
same,"viability, T/C",[11],35.3%
same,"viability, T/C",[12],18.7%
same,"viability, T/C",[13],41.3%
same,"viability, T/C",[14],39.6%
same,"viability, T/C",[15],27.2%
same,"viability, T/C",[16],31.3%
same,"viability, T/C",[17],21.5%
same,"viability, T/C",[18],8.47%
same,"viability, T/C",[19],19.2%
same,"viability, T/C",[20],23.2%
same,"viability, T/C",[21],19.4%
same,"viability, T/C",[22],18.8%
same,"viability, T/C",[23],14.4%
same,"viability, T/C",[24],5.46%
same,"viability, T/C",[25],16%
same,"viability, T/C",[26],9.37%
same,"viability, T/C",[27],12.8%
same,"viability, T/C",[28],8.37%
same,"viability, T/C",[29],11.6%
same,"viability, T/C",[30],2.68%
same,"viability, T/C",[31],16.4%
same,"viability, T/C",[32],10.6%
same,"viability, T/C",[33],9.7%
same,"viability, T/C",[34],8.57%
same,"viability, T/C",[35],6.24%
same,"viability, T/C",[36],3.02%
CC(C)NCC(C(=O)N1CCN(c2ncnc3c2C(C)CC3O)CC1)c1ccc(Cl)cc1 (stereo not drawn) + CCn1c(-c2cc(N3CCN(C)CC3)cnc2C(C)OC)c2c3cc(ccc31)-c1csc(n1)CC(NC(=O)C1CC1C)C(=O)N1CCCC(N1)C(=O)OCC(C)(C)C2,IC50,second compound 0.000949 µM,< 31.6 nM
same,IC50,second compound 0.003 µM,< 31.6 nM
same,IC50,second compound 0.00949 µM,< 31.6 nM
same,IC50,second compound 0.03 µM,< 31.6 nM
same,IC50,second compound 0.0949 µM,< 31.6 nM
same,IC50,second compound 0.3 µM,< 31.6 nM
same,"viability, T/C",[3],33.8%
same,"viability, T/C",[4],38.8%
same,"viability, T/C",[5],35.5%
same,"viability, T/C",[6],23%
same,"viability, T/C",[37],15.5%
same,"viability, T/C",[38],18.1%
same,"viability, T/C",[9],41.8%
same,"viability, T/C",[10],37%
same,"viability, T/C",[11],36%
same,"viability, T/C",[12],15%
same,"viability, T/C",[39],6.94%
same,"viability, T/C",[40],11.1%
same,"viability, T/C",[15],38.7%
same,"viability, T/C",[16],33.9%
same,"viability, T/C",[17],28%
same,"viability, T/C",[18],8.72%
same,"viability, T/C",[41],4.36%
same,"viability, T/C",[42],7.59%
same,"viability, T/C",[21],20.9%
same,"viability, T/C",[22],21.9%
same,"viability, T/C",[23],16.6%
same,"viability, T/C",[24],5.37%
same,"viability, T/C",[43],5.01%
same,"viability, T/C",[44],1.08%
same,"viability, T/C",[27],11.8%
same,"viability, T/C",[28],13.1%
same,"viability, T/C",[29],8.25%
same,"viability, T/C",[30],4.84%
same,"viability, T/C",[45],4.83%
same,"viability, T/C",[46],1.9%
same,"viability, T/C",[33],10.5%
same,"viability, T/C",[34],11%
same,"viability, T/C",[35],8.33%
same,"viability, T/C",[36],2.49%
same,"viability, T/C",[47],4.32%
same,"viability, T/C",[48],1.07%
CC(Nc1ccc2c(c1)OCCn1cc(N3C(=O)OCC3C(F)F)nc1-2)C(N)=O (stereo not drawn) + CCn1c(-c2cc(N3CCN(C)CC3)cnc2C(C)OC)c2c3cc(ccc31)-c1csc(n1)CC(NC(=O)C1CC1C)C(=O)N1CCCC(N1)C(=O)OCC(C)(C)C2,IC50,second compound 0.000949 µM,< 31.6 nM
same,IC50,second compound 0.003 µM,< 31.6 nM
same,IC50,second compound 0.00949 µM,< 31.6 nM
same,IC50,second compound 0.03 µM,< 31.6 nM
same,IC50,second compound 0.0949 µM,< 31.6 nM
same,IC50,second compound 0.3 µM,< 31.6 nM
same,"viability, T/C",[3],31.7%
same,"viability, T/C",[4],24.1%
same,"viability, T/C",[5],21.9%
same,"viability, T/C",[6],13.8%
same,"viability, T/C",[37],14.3%
same,"viability, T/C",[38],11.4%
same,"viability, T/C",[9],32.7%
same,"viability, T/C",[10],22.1%
same,"viability, T/C",[11],20.1%
same,"viability, T/C",[12],13.7%
same,"viability, T/C",[39],8.65%
same,"viability, T/C",[40],7.85%
same,"viability, T/C",[15],31.2%
same,"viability, T/C",[16],21.7%
same,"viability, T/C",[17],11.8%
same,"viability, T/C",[18],8.38%
same,"viability, T/C",[41],7.16%
same,"viability, T/C",[42],4.66%
same,"viability, T/C",[21],12.8%
same,"viability, T/C",[22],10.3%
same,"viability, T/C",[23],11.4%
same,"viability, T/C",[24],3.73%
same,"viability, T/C",[43],6.17%
same,"viability, T/C",[44],1.25%
same,"viability, T/C",[27],7.65%
same,"viability, T/C",[28],6.24%
same,"viability, T/C",[29],4.21%
same,"viability, T/C",[30],1.25%
same,"viability, T/C",[45],5.01%
same,"viability, T/C",[46],1.25%
same,"viability, T/C",[33],10.2%
same,"viability, T/C",[34],6.36%
same,"viability, T/C",[35],5.9%
same,"viability, T/C",[36],3.16%
same,"viability, T/C",[47],3.15%
same,"viability, T/C",[48],0.45%
O=C(c1ccc(F)c(F)c1Nc1ccc(I)cc1F)N1CC(O)([C@@H]2CCCCN2)C1 + CCn1c(-c2cc(N3CCN(C)CC3)cnc2C(C)OC)c2c3cc(ccc31)-c1csc(n1)CC(NC(=O)C1CC1C)C(=O)N1CCCC(N1)C(=O)OCC(C)(C)C2,IC50,second compound 0.000949 µM,20.9 nM
same,IC50,second compound 0.003 µM,< 3.16 nM
same,IC50,second compound 0.00949 µM,< 3.16 nM
same,IC50,second compound 0.03 µM,< 3.16 nM
same,IC50,second compound 0.0949 µM,< 3.16 nM
same,IC50,second compound 0.3 µM,< 3.16 nM
same,"viability, T/C",[1],59.3%
same,"viability, T/C",[2],50.1%
same,"viability, T/C",[3],49.4%
same,"viability, T/C",[4],38.6%
same,"viability, T/C",[5],26.4%
same,"viability, T/C",[6],24.1%
same,"viability, T/C",[7],41.5%
same,"viability, T/C",[8],46.7%
same,"viability, T/C",[9],39%
same,"viability, T/C",[10],26.8%
same,"viability, T/C",[11],20.1%
same,"viability, T/C",[12],17.4%
same,"viability, T/C",[13],32.3%
same,"viability, T/C",[14],32.1%
same,"viability, T/C",[15],29.2%
same,"viability, T/C",[16],17.4%
same,"viability, T/C",[17],17.8%
same,"viability, T/C",[18],15%
same,"viability, T/C",[19],23.7%
same,"viability, T/C",[20],18.3%
same,"viability, T/C",[21],14.9%
same,"viability, T/C",[22],10.8%
same,"viability, T/C",[23],10.3%
same,"viability, T/C",[24],6.61%
same,"viability, T/C",[25],8.68%
same,"viability, T/C",[26],11.3%
same,"viability, T/C",[27],12.6%
same,"viability, T/C",[28],8.23%
same,"viability, T/C",[29],9.48%
same,"viability, T/C",[30],7.34%
same,"viability, T/C",[31],12.8%
same,"viability, T/C",[32],7.85%
same,"viability, T/C",[33],6.59%
same,"viability, T/C",[34],9.27%
same,"viability, T/C",[35],7.62%
same,"viability, T/C",[36],6.97%

# — PubChem BioAssay AID2060900 (Molecular Pharmacology Branch, DTP, NCI, 2025)
